From patent publication US10034886B2, “GLP-1 receptor modulators” (Celgene International II SÀRL, priority 2014, dated 2018)
Like-named read-outs stand apart in the source and are kept apart here.

Target: T1, GLP-1R (Homo sapiens, UniProt P43220)
T1 construct: host or cells: GLP-1R CRE-bla CHO-K1 cells
Test: EC20 GLP-1(9-36) PAM cAMP assay: dose response of compound in the presence of fixed concentration of GLP-1(9-36)
Type: cell-based
Details: GLP-1R CRE-bla CHO-K1 cells, read-out: EC20 GLP-1(9-36) PAM EC50
Summary of the method: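 GLP-1R CRE-bla CHO-K1 cells treated 30 min at 37 °C with 12-point compound dose response plus fixed EC20 GLP-1(9-36), with IBMX, in HBSS/HEPES/0.1% BSA pH 7.4. Total cAMP measured by luminescent detection against standard curve; EC50 and Emax from non-linear regression.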

[1] = dose response of compound in presence of fixed concentration of GLP-1(9-36)
[2] = compound dose response with fixed concentration of GLP-1(9-36)

T1 sequence (P43220 24-463): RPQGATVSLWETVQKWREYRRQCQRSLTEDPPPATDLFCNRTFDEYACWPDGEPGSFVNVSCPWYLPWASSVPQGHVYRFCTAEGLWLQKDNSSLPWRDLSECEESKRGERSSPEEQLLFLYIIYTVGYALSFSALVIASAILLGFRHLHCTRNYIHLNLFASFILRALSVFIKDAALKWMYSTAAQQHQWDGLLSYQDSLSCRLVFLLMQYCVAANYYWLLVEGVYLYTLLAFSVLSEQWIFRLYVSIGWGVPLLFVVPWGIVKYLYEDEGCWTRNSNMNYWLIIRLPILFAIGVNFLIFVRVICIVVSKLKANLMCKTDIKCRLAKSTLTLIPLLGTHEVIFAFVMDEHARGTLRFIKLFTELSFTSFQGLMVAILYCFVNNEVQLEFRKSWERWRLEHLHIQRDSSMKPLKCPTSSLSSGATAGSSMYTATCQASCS
T1 sequence (P01275 100-127 partner limits assumed): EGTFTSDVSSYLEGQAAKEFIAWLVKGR

| Compound | EC50 [1] [nM] | EC50 [2] [nM] |
| --- | --- | --- |
| CCCCCCCOc1ccc(-c2cnc(-c3ccc(C[C@H](NC(=O)c4ccc(C(C)(C)C)cc4)C(=O)N[C@@H](CC)C(=O)O)cc3)nc2)cc1 [Compound 499] | < 800 | – |
| CCCCCCCOc1ccc(-c2cnc(-c3ccc(C[C@H](NC(=O)c4ccc(C(C)(C)C)s4)C(=O)NC(C(=O)O)C(O)c4cccs4)cc3)nc2)cc1 (stereo partly drawn) [Compound 888] | 800 to 2500 | – |
| CCCCCCCOc1ccc(-c2cnc(-c3ccc(C[C@H](NC(=O)c4ccc(C(C)(C)C)s4)C(=O)NC(C(=O)O)[C@@H](C)c4ccccc4)cc3)nc2)cc1 (stereo partly drawn) [Compound 897] | 5000 to 10000 | – |
| CC[C@H]1CC[C@H](c2ccc(-c3cnc(-c4ccc(C[C@H](NC(=O)c5ccc(CC(C)C)cc5)C(=O)N5CC(C(=O)O)C5)cc4)nc3)cc2)CC1 [Compound 1155] | < 800 | – |
| CCCCCCCOc1ccc(-c2cnc(-c3ccc(C[C@H](NC(=O)c4ccc(C(C)(C)C)s4)C(=O)N4CC[C@@H](N)C4)cc3)nc2)cc1 [Compound 987] | 5000 to 10000 | – |
| CC(C)(C)c1ccc(C(=O)N[C@@H](Cc2ccc(-c3ncc(-c4ccc(-c5ccc(OC(F)(F)F)cc5F)cc4F)cn3)cc2)C(=O)N2CC(C(=O)O)C2)s1 [Compound 1203] | – | < 800 |
| C[C@@H](NC(=O)[C@H](Cc1ccc(-c2ncc(-c3ccc(C(C)(C)C)cc3)cn2)cc1)NC(=O)c1ccc(C(C)(C)C)cc1)C(=O)O [Compound 720] | 2500 to 5000 | – |
| CC(C)(C)c1ccc(C(=O)NC(Cc2ccc(-c3ncc(N4CCC(C#N)(c5ccccc5)CC4)cn3)cc2)C(=O)N2CC(C(=O)O)C2)s1 (stereo not drawn) [Compound 1423] | – | 800 to 2500 |
| Cc1cc(F)ccc1-c1ccc(-c2cnc(-c3ccc(C[C@H](NC(=O)c4ccc(C(C)(C)C)s4)C(=O)N4CC(C(=O)O)C4)cc3)nc2)c(F)c1 [Compound 1206] | – | 800 to 2500 |
| COc1ccccc1-c1ccc(-c2cnc(-c3ccc(C[C@H](NC(=O)c4ccc(C(C)(C)C)s4)C(=O)N[C@H](C)C(=O)O)cc3)nc2)cc1 [Compound 1012] | 2500 to 5000 | – |
| CCCCCCCOc1ccc(-c2cnc(-c3ccc(C[C@@H](NC(=O)c4ccc(C(C)(C)C)s4)C(=O)N4CC(C(=O)O)C4)cc3)nc2)cc1 [Compound 1271] | – | 800 to 2500 |
| CCCCCCCOc1ccc(-c2cnc(-c3ccc(C[C@H](NC(=O)c4ccc(C(C)(C)C)s4)C(=O)NCC(=O)NCC(=O)O)cc3)nc2)cc1 [Compound 486] | < 800 | – |
| CCCCCCCOc1ccc(-c2cnc(-c3ccc(CC(NC(=O)c4ccc(C(C)(C)C)s4)C(=O)Nc4ccc(C(=O)O)cc4)cc3)nc2)cc1 (stereo not drawn) [Compound 442] | 800 to 2500 | – |
| CCCCCCCOc1ccc(-c2cnc(-c3ccc(C[C@H](NC(=O)c4ccc(C5CC5)s4)C(=O)N4CC[C@H](C(=O)O)C4)cc3)nc2)cc1 [Compound 865] | 800 to 2500 | – |
| CC(C)(C)c1ccc(C(=O)N[C@@H](Cc2ccc(-c3ncc(-c4ccc(-c5ccc(F)cc5)cc4)cn3)cc2)C(=O)O)s1 [Compound 1354] | – | 2500 to 5000 |
| CCOc1ccc2cc(-c3cnc(-c4ccc(C[C@H](NC(=O)c5ccc(C(C)(C)C)s5)C(=O)N[C@H](C)C(=O)O)cc4)nc3)ccc2c1 [Compound 992] | 2500 to 5000 | – |
| Cc1ccccc1-c1ccc(-c2cnc(-c3ccc(C[C@H](NC(=O)c4ccc(C(C)(C)C)s4)C(=O)N[C@H](C)C(=O)O)cc3)nc2)cc1 [Compound 1023] | 2500 to 5000 | – |
| COc1ccc(-c2cnc(-c3ccc(C[C@H](NC(=O)c4ccc(C(C)(C)C)s4)C(=O)N[C@H](C)C(=O)O)cc3)nc2)c(F)c1OCC(C)C [Compound 1003] | 5000 to 10000 | – |
| CCCOc1ccc(C(=O)N[C@@H](Cc2ccc(-c3ncc(-c4ccc([C@H]5CC[C@H](CC)CC5)cc4)cn3)cc2)C(=O)O)cc1 [Compound 1377] | – | 800 to 2500 |
| CCCCCCCOc1ccc(-c2cnc(-c3ccc(C[C@H](NC(=O)c4ccc(C(C)(C)C)s4)C(=O)N4CC[C@H](C(=O)Nc5nnn[nH]5)C4)cc3)nc2)cc1 [Compound 885] | 5000 to 10000 | – |
| CCCCCCCOc1ccc(-c2cnc(-c3ccc(C[C@H](NC(=O)c4ccc(C(C)(C)C)cc4C)C(=O)N4CC[C@H](C(=O)O)C4)cc3)nc2)cc1 [Compound 868] | 800 to 2500 | – |
| CCC[C@H]1CC[C@H](C2CCN(c3cnc(-c4ccc(C[C@H](NC(=O)c5ccc(C(C)(C)C)s5)C(=O)N5CC(F)(C(=O)O)C5)cc4)nc3)CC2)CC1 [Compound 1451] | – | 800 to 2500 |
| Cc1ccc(-c2ccc(-c3cnc(-c4ccc(C[C@H](NC(=O)c5ccc(C(C)(C)C)s5)C(=O)N[C@H](C)C(=O)O)cc4)nc3)cc2F)cc1 [Compound 1139] | < 800 | – |
| CCCCCCCOc1ccc(-c2cnc(-c3ccc(C[C@H](NC(=O)c4ccc(CC(C)C)cc4)C(=O)N4CC[C@H](C(=O)O)C4)cc3)nc2)cc1 [Compound 851] | 2500 to 5000 | – |

| Compound | EC50 [1] [nM] | EC50 [2] [nM] |
| --- | --- | --- |
| CCCCCCCOc1ccc(-c2cnc(-c3ccc(C[C@H](NC(=O)c4ccc(OCC)cc4)C(=O)NC(C(=O)O)C(O)c4ccccc4)cc3)nc2)cc1 (stereo partly drawn) [Compound 949] | 800 to 2500 | – |
| CCc1ccc(/C=C/c2cnc(-c3ccc(C[C@H](NC(=O)c4ccc(C(C)(C)C)s4)C(=O)N[C@H](C)C(=O)O)cc3)nc2)cc1 [Compound 1055] | 2500 to 5000 | – |
| CC[C@H]1CC[C@H](c2ccc(-c3cnc(-c4ccc(C[C@H](NC(=O)c5ccc(C(C)(C)C)s5)C(=O)N[C@@H](C)C(=O)O)cc4)nc3)cc2)CC1 [Compound 1067] | 800 to 2500 | – |
| CCCCc1ccc(C2CCN(c3cnc(-c4ccc(C[C@H](NC(=O)c5ccc(C(C)(C)C)s5)C(=O)N5CC(C(=O)O)C5)cc4)nc3)C2)cc1 (stereo partly drawn) [Compound 1505] | – | 800 to 2500 |
| CC[C@H]1CC[C@H](c2ccc(-c3cnc(-c4ccc(C[C@H](NC(=O)c5ccc(C(C)(C)C)s5)C(=O)O)cc4)nn3)cc2)CC1 [Compound 1336, (S)-2-(5-(tert-butyl)thiophene-2-carboxamido)-3-(4-(6-(4-((1r,4r)-4-ethylcyclohexyl)phenyl)-1,2,4-triazin-3-yl)phenyl)propanoic acid] | – | 2500 to 5000 |
| CCC[C@H]1CC[C@H](C2CCN(c3cnc(-c4ccc(C[C@H](NC(=O)c5ccc(C(C)(C)C)s5)C(=O)N5CC(C(=O)O)C5)cc4)nc3)CC2)CC1 [Compound 1413, 1-((S)-2-(5-(tert-butyl)thiophene-2-carboxamido)-3-(4-(5-(4-((1s,4r)-4-propylcyclohexyl)piperidin-1-yl)pyrimidin-2-yl)phenyl)propanoyl)azetidine-3-carboxylic acid] | – | < 800 |
| CCCCCCCOc1ccc(-c2cnc(-c3ccc(C[C@H](NC(=O)/C=C/c4ccc(OC)cc4)C(=O)N4CC(C(=O)O)C4)cc3)nc2)cc1 [Compound 1103] | 800 to 2500 | – |
| C[C@@H](NC(=O)[C@H](Cc1ccc(-c2ncc(-c3ccc(-c4ccccc4)nc3)cn2)cc1)NC(=O)c1ccc(C(C)(C)C)s1)C(=O)O [Compound 1303] | – | 5000 to 10000 |
| CCCCCCCOc1ccc(-c2cnc(-c3ccc(C[C@H](NC(=O)c4ccc(C(C)(C)C)cc4)C(=O)NC(C(=O)O)C(O)c4ccccc4)cc3)nc2)cc1 (stereo partly drawn) [Compound 570] | < 800 | – |
| CCCCCCCOc1ccc(-c2cnc(-c3ccc(C[C@H](NC(=O)c4ccc(C(C)(C)C)cc4)C(=O)N[C@H](C)C(=O)O)cc3)nc2)cc1 [Compound 398, (R)-2-((S)-2-(4-(tert-butyl)benzamido)-3-(4-(5-(4-(heptyloxy)phenyl)pyrimidin-2-yl)phenyl)propanamido)propanoic acid] | < 800 | – |
| CCCCCCCOc1ccc(-c2cnc(-c3ccc(C[C@H](NC(=O)c4ccc(C(C)(C)C)s4)C(=O)N4CC(c5nn[nH]n5)C4)cc3)nc2)cc1 [Compound 978] | 800 to 2500 | – |
| CCCCCCCOc1ccc(-c2cnc(-c3ccc(CC(NC(=O)c4ccc(C(C)(C)C)s4)C(=O)N[C@@H](CCCNC(=N)N)C(=O)O)cc3)nc2)cc1 (stereo partly drawn) [Compound 425] | 2500 to 5000 | – |
| CCCCCCCOc1ccc(-c2cnc(-c3ccc(C[C@H](NC(=O)c4ccc(C(C)(C)C)s4)C(=O)N4CCC[C@H]4C(=O)N4CCCC4C(=O)O)cc3)nc2)cc1 (stereo partly drawn) [Compound 497] | < 800 | – |
| CC(C)(C)c1ccc(C(=O)N[C@@H](Cc2ccc(-c3ncc(-c4ccc(-c5ccccc5Cl)cc4F)cn3)cc2)C(=O)N2CC(C(=O)O)C2)s1 [Compound 1195] | < 800 | – |
| CCCCCCCOc1ccc(-c2cnc(-c3ccc(C[C@H](NC(=O)c4ccc(C(C)(C)C)s4)C(=O)NC(C(=O)O)c4cccs4)cc3)nc2)cc1 (stereo partly drawn) [Compound 600] | < 800 | – |
| CCCCCCCOc1ccc(-c2cnc(-c3ccc(C[C@H](NC(=O)c4ccc(C(C)(C)C)s4)C(=O)NS(C)(=O)=O)cc3)nc2)cc1 [Compound 419] | < 800 | – |
| CC(C)(C)CCOc1ccc(-c2cnc(-c3ccc(C[C@H](NC(=O)c4ccc(C(C)(C)C)s4)C(=O)NC(C(=O)O)C(O)c4ccccc4)cc3)nc2)cc1 (stereo partly drawn) [Compound 941] | 2500 to 5000 | – |
| CCCCCCCOc1ccc(-c2cnc(-c3ccc(C[C@H](NC(=O)c4ccc(C(C)(C)C)cc4)C(=O)N[C@@H](Cc4ccccn4)C(=O)O)cc3)nc2)cc1 [Compound 542] | < 800 | – |
| CCCCCCCOc1ccc(-c2cnc(-c3ccc(C[C@H](NC(=O)c4ccc(C(C)(C)C)s4)C(=O)NC(C(=O)O)C(O)c4ccc(C#N)cc4)cc3)nc2)cc1 (stereo partly drawn) [Compound 911] | 800 to 2500 | – |
| CC(C)(C)c1ccc(C(=O)NC(Cc2ccc(-c3ncc(N4CCC5CCCCC5C4)cn3)cc2)C(=O)N2CC(C(=O)O)C2)s1 (stereo not drawn) [Compound 1421] | – | < 800 |
| CCCc1ccc(-c2ccc(-c3cnc(-c4ccc(C[C@H](NC(=O)c5ccc(C(C)(C)C)s5)C(=O)N5CC(C(=O)O)C5)cc4)nc3)c(F)c2)cc1 [Compound 1208] | – | < 800 |
| CCCCCCCOc1ccc(-c2cnc(-c3ccc(C[C@H](NC(=O)c4ccc(C(C)(C)C)s4)C(=O)NC(C(=O)O)C(O)c4cc(C)no4)cc3)nc2)cc1 (stereo partly drawn) [Compound 912] | < 800 | – |
| CCCCc1ccc(-c2ccc(-c3cnc(-c4ccc(C[C@H](NC(=O)c5ccc(C(C)(C)C)s5)C(=O)N[C@H](C)C(=O)O)cc4)nc3)cc2)cc1 [Compound 1135] | 800 to 2500 | – |
| CC(C)(C)c1ccc(C(=O)N[C@@H](Cc2ccc(-c3ncc(N4CCC(C5CCCCC5)CC4)cn3)cc2)C(=O)N2CC(C(=O)O)C2)s1 [Compound 1431] | – | < 800 |
